Here are results for four compounds from US20070142227A1, “Systemic inducer composition for plants” (priority 2003, published 2007).

One experiment has as its system early & late blight. The format is in vivo. As to conditions: potatoes 4 times during season, foliar; chemical compound 25 grams, extract 5 grams.
Another experiment deals with leaf infection. The format is in vivo, tomato. As to conditions: tomatoes every week, foliar; chemical compound 25 grams, extract 5 grams.
In a further experiment the test system is infection of leaves. The format is in vivo. The conditions noted are these: lettuce every 10 days, foliar; chemical compound 25 grams, extract 5 grams.
For experiment [1], the system named is fire blight. Put plainly: Specific microorganism extracts and chemical compounds, apple fire blight burn (Table II). The format is in vivo, apples.
Another experiment has as its system infection of fruits. The class given is in vivo. As to conditions: blueberry every 15 days, foliar; chemical compound 25 grams, extract 5 grams.
A further experiment deals with mildew. Put plainly: Specific microorganism extracts and chemical compounds, grape mildew (Table II). The format is in vivo, grapes.
A further experiment deals with sigatoka. The experiment can be described thus: Specific microorganism extracts and chemical compounds, banana sigatoka (Table II). The format is in vivo.
Experiment [2] concerns infected leaves and fruits. The class given is in vivo. As to conditions: strawberry every 10 days, foliar; chemical compound 25 grams, extract 5 grams.
In experiment [3] the test system is Black Sigatoka. Put plainly: Resistance induction in bananas against Black Sigatoka (Table I D). More on the design: species or system banana. As to conditions: in vivo.
Experiment [4] relates to Fire Blight. Put plainly: Resistance induction in apple trees against fire blight (Table I B). The conditions noted are these: in vivo.
The next experiment deals with Foliar Infections. The format is in vivo. As to conditions: strawberry plant, chemical compound 1.5 kg per acre, extract 5 grams per acre, once a week.
The next experiment has as its system nematode. Put plainly: Resistance induction in strawberry plant, root infection (Table I A). As to conditions: in vivo.
For experiment [5], the system named is Nematodes. The experiment can be described thus: Resistance induction in bananas against nematodes (Table I D). Details: species or system banana. The conditions noted are these: in vivo.
In experiment [6] the test system is phytopthora. The class given is in vivo. The conditions noted are these: tomato plants, chemical compound 1.5 kg per acre, extract 5 grams per acre, every 10 days.
Another experiment concerns foliar infection. The format is in vivo. As to conditions: tomato plants, chemical compound 1.5 kg per acre, extract 5 grams per acre, every 10 days.
The test system of experiment [7] is nematodes. Put plainly: Resistance induction in tomato plants, nematodes (Table I C). The conditions noted are these: in vivo.
A further experiment concerns leaf disease, botrylis. Put plainly: Induction of resistance, tomato leaf infection (Table III). The conditions noted are these: tomatoes, every 10 days, foliar; chemical compound 3 kg, extract 5 grams. The format is in vivo. As for the experimental part:
(§1) These chemical compounds were tested at rates 0.25 to 3 kg per acre of citrus, strawberries, tomatoes and bananas by themselves to measure (A) fertilizer effect on foliar uptake, (B) growth effect, (C) resistance induction effect. These compounds were then combined with extracts of pseudomonas, subtilis species and actinomyces and applied to the similar set of plants and measured for A, B, and C as above. These extracts were also applied to a similar set of plants and measured for A, B, and C as above.

For experiment [8], the system named is Black Sigatoka. Put plainly: Induction of resistance, banana Sigatoka (Table III). The format is in vivo. The conditions noted are these: bananas, every week, foliar, for 6 months; chemical compound 3 kg, extract 5 grams. Here is the method: as §1
The nature of experiment [9]: Growth effect, tomatoes (Table III). The class given is in vivo. As to conditions: every 10 days, foliar, chemical compound 3 kg, extract 5 grams. As for the experimental part:
as §1

Experiment [10] has as its system phytopthora. Put plainly: Induction of resistance, citrus phytopthora in roots (Table III). The format is in vivo. As to conditions: foliar, 4 times in 1 year, chemical compound 3 kg, extract 5 grams. As for the experimental part:
as §1

In the next experiment the test system is leaf disease. Put plainly: Induction of resistance, strawberry leaf disease (Table III). The format is in vivo. The conditions noted are these: every 10 days, chemical compound 3 kg, extract 5 grams. Here is the method:
as §1

Experiment [11] in a line: Growth effect, strawberry (Table III). The format is in vivo. The conditions noted are these: every 10 days, chemical compound 3 kg, extract 5 grams. As for the experimental part: as §1
A further experiment concerns die back. Put plainly: Induction of resistance, citrus die back (Table III). The class given is in vivo. As to conditions: foliar, 4 times in 1 year, chemical compound 3 kg, extract 5 grams. As for the experimental part: as §1
Experiment [12] is described as follows: Growth effect, bananas (Table III). The class given is in vivo. As to conditions: every week, foliar, for 6 months, chemical compound 3 kg, extract 5 grams. Here is the method: as §1
Experiment [13] can be described thus: Growth effect, citrus (Table III). The class given is in vivo. The conditions noted are these: foliar, 4 times in 1 year, chemical compound 3 kg, extract 5 grams. As for the experimental part: as §1
In experiment [14] the test system is phytopthora. The experiment can be described thus: Induction of resistance, tomato phytopthora in roots (Table III). The format is in vivo. The conditions noted are these: tomatoes, every 10 days, foliar; chemical compound 3 kg, extract 5 grams. Here is the method:
as §1

[15] abbreviates: bananas every week for 6 months, foliar, chemical compound 25 grams alone.

`O=C([O-])CC(O)(CC(=O)[O-])C(=O)[O-].O=C([O-])CC(O)(CC(=O)[O-])C(=O)[O-].[Ca+2].[Ca+2].[Ca+2]` [calcium citrate]: the “infected leaves (early & late blight)” value in the experiment with early & late blight turned out to be 25% leaf infection. For the same compound, in the experiment with leaf infection, the “infected leaves / leaf infection” value was determined as 85% infection. This compound also returned an infection of leaves in the experiment on infection of leaves of 90% infection. Besides, the “fire blight burn (leaves)” value in the experiment with fire blight [1] (in vivo) was 20% fire blight burn. The infection of fruits with infection of fruits was 30% infection of fruits. The mildew in the experiment on mildew (in vivo) was 55% mildew. In the experiment with sigatoka (in vivo), the “infection (sigatoka, leaves)” value is 85% infection-all leaves except youngest 3 and the “infection-all leaves except youngest (number of youngest leaves)” value is listed as 85% infection-all leaves except youngest 3. In experiment [2], this compound displayed an infected leaves of 80% infection.

Regarding `O=[N+]([O-])[O-].O=[N+]([O-])[O-].[Ca+2]` [calcium nitrate], the “Results On Black Sigatoka: Leaves at Flowering” value in the experiment on Black Sigatoka [3] is on record as 7 Leaves at Flowering, High Nematode infection. Moreover, the “Results On Development of Fire Blight” value in the experiment with Fire Blight [4] amounted to 20% fire blight. The “Results in Foliar Infections” value in the experiment with Foliar Infections is reported as 20% infection. Further, the “Results in Root Infection (nematode infection)” value in the experiment on nematode was found to be 20% nematode infection. For the same compound, in the experiment on Nematodes [5], the “Results On Nematode Infection” value is reported as 7 Leaves at Flowering, High Nematode infection. In addition, the “Results In Foliar & Root Infections: phytopthora” value in the experiment on phytopthora [6] is on record as 15% foliar infection, 15% phytopthora, 20% nematrode. For the same compound, the “Results In Foliar & Root Infections: foliar infection” value with foliar infection is 15% foliar infection, 15% phytopthora, 20% nematrode. Further, the “Results In Foliar & Root Infections: nematode” value in the experiment with nematodes [7] is recorded as 15% foliar infection, 15% phytopthora, 20% nematrode.

Consider `O=P(O)(O)O` [potassium phosphate], for which the “Results On Black Sigatoka: Leaves at Flowering” value in the experiment on Black Sigatoka [3] was 7 Leaves at Flowering, High Nematode infection. For the same compound, in the experiment on Fire Blight [4], the “Results On Development of Fire Blight” value was 18% fire blight. Further, the “Results in Foliar Infections” value in the experiment on Foliar Infections is recorded as 20% infection. Also, the “Results in Root Infection (nematode infection)” value in the experiment with nematode was 20% nematode infection. The “Results On Nematode Infection” value in the experiment with Nematodes [5] was 7 Leaves at Flowering, High Nematode infection. In addition, the “Results In Foliar & Root Infections: phytopthora” value in the experiment with phytopthora [6] was 15% foliar infection, 15% phytopthora, 20% nematrode. The “Results In Foliar & Root Infections: foliar infection” value in the experiment with foliar infection is reported as 15% foliar infection, 15% phytopthora, 20% nematrode. The “Results In Foliar & Root Infections: nematode” value in the experiment with nematodes [7] was 15% foliar infection, 15% phytopthora, 20% nematrode.

Turning to potassium phosphite, the “Induction of Resistance: leaf infection” value in the experiment on leaf disease, botrylis was 35% leaf infection. The “Induction of Resistance: Sigatoka control, leaves with no symptoms” value in the experiment with Black Sigatoka [8] is given as “only 4 youngest leaves”. Also, the Growth effect result in [9] is reported as “no increase”; in experiment [11], “no increase”; in experiment [12], “no increase”; in experiment [13], “zero improvement”. Moreover, the results for the “Induction of Resistance: phytopthora in roots” value in the experiment on phytopthora [10] and in the experiment on phytopthora [14] were “zero resistance to phytopthora,” and “phytopthora zero control,”, respectively. The “infected leaves (early & late blight)” value in the experiment on early & late blight is recorded as 35% leaf infection. Also, the “Induction of Resistance: leaf disease, infection” value in the experiment on leaf disease is reported as “suppression, 25% infection”. Also, the “infected leaves / leaf infection” value in the experiment with leaf infection worked out at 100% infection. Besides, the “Induction of Resistance: die back” value with die back was “die back as usual”. The same compound displayed an infection of leaves in the experiment with infection of leaves of 85% infection. In addition, in the experiment on fire blight [1] (apples (2 yr old) 10 days post bud break & 1 week later, foliar, chemical compound 25 grams, extract 5 grams), the “fire blight burn (leaves)” value is 25% fire blight burn. Further, the infection of fruits in the experiment with infection of fruits is listed as 35% infection of fruits. Further, in the experiment with mildew (grapes every 15 days, foliar, chemical compound 25 grams, extract 5 grams), the mildew stood at 70% mildew. Also, the “infection (sigatoka, leaves)” value in the experiment with sigatoka (setting [15]) is 90%. The “infection-all leaves except youngest (number of youngest leaves)” value in the experiment on sigatoka (setting [15]) stood at 4. This compound had an infected leaves in experiment [2] of 85% infection.
